Structures are written as SMILES.

For this experiment, the target named is T1, APOL1 G2 (Homo sapiens, UniProt O14791, DEL388-389).
T1 construct: expressed in transfected cells; host or cells: HEK293 T-REx clonal line stably expressing GCaMP6f (HEK T-REx/GCaMP6f/APOL1 G2 K6.3), doxycycline induced
T1 sequence (O14791 with tags, fused parts or gaps DEL388-389): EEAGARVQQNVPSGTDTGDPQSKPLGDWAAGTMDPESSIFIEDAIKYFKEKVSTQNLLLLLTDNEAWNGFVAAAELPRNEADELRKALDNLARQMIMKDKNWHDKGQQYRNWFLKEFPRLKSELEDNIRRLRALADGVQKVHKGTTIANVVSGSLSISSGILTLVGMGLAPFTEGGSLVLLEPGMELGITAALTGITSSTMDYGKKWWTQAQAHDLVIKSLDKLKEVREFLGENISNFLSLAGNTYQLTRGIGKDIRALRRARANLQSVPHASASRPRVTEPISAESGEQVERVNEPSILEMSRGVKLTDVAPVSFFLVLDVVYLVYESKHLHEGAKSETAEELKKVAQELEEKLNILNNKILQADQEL
Description: APOL1-mediated calcium transport (calcium influx) assay, HEK T-REx/GCaMP6f/APOL1 G2 K6.3 cells, FLIPR TETRA. The conditions noted are these: prevention of calcium influx; geometric mean of at least 2 assay runs; † = average of a technical replicate from a single assay run. Type of experiment: cell-based. The gist of the method: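 A HEK293 T-REx clone stably expressing GCaMP6f had APOL1 G2 induced with doxycycline (20 ng/mL solution added) for 6 h. Cells were then washed into Ca2+-free Tyrode's buffer (pH 7.4) and preincubated with compounds (duplicate 8-point) for 10 min at room temperature. Ca2+ injection to 5 mM final produced FLIPR GCaMP fluorescence, giving AC50 for influx inhibition (geometric mean, ≥2 runs).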
For `CS(=O)(=O)c1ccc(OCCN2CCC3(CC2)C(=O)Nc2ccc(C#N)cc23)cc1C(F)F` [Compound 100, 1′-{2-[3-(difluoromethyl)-4-methanesulfonylphenoxy]ethyl}-2-oxo-1,2-dihydrospiro[indole-3,4′-piperidine]-5-carbonitrile], the AC50 came to 503 nM.

As to `CS(=O)(=O)C1(c2ccc(OCCN3CCC4(CC3)C(=O)Nc3ccc(C#N)cc34)cc2)CC1` [Compound 101, 1′-{2-[4-(1-methanesulfonylcyclopropyl)phenoxy]ethyl}-2-oxo-1,2-dihydrospiro[indole-3,4′-piperidine]-5-carbonitrile], the AC50 stood at 634 nM.

Regarding `CS(=O)(=O)C1(c2ccc(OCCN3CCC4(CC3)C(=O)Nc3ccc(Cl)cc34)cc2)CC1` [Compound 102, 5-chloro-1′-{2-[4-(1-methanesulfonylcyclopropyl)phenoxy]ethyl}-1,2-dihydrospiro[indole-3,4′-piperidin]-2-one], the half-maximal activity concentration (AC50) was 671 nM.

Consider `CN1c2ccc(OCCN3CCC4(CC3)C(=O)Nc3ccc(Cl)cc34)cc2CCS1(=O)=O` [Compound 103, 6-(2-{5-chloro-2-oxo-1,2-dihydrospiro[indole-3,4′-piperidin]-1′-yl}ethoxy)-1-methyl-3,4-dihydro-1H-2λ^6,1-benzothiazine-2,2-dione], for which the half-maximal activity concentration (AC50) came to 591 nM.

In the case of `CN1c2ccc(OCCN3CCC4(CC3)C(=O)Nc3ccc(C#N)cc34)cc2CCS1(=O)=O` [Compound 104, 1′-{2-[(1-methyl-2,2-dioxo-3,4-dihydro-1H-2λ^6,1-benzothiazin-6-yl)oxy]ethyl}-2-oxo-1,2-dihydrospiro[indole-3,4′-piperidine]-5-carbonitrile], the AC50 amounted to 408 nM.

Regarding `N#Cc1ccc2c(c1)C1(CCN(CCOc3ccc4c(c3)CCC(=O)N4CC(F)F)CC1)C(=O)N2` [Compound 105, 1′-(2-{[1-(2,2-difluoroethyl)-2-oxo-1,2,3,4-tetrahydroquinolin-6-yl]oxy}ethyl)-2-oxo-1,2-dihydrospiro[indole-3,4′-piperidine]-5-carbonitrile], the AC50 came out at 392 nM.

With `O=C1CCc2cc(OCCN3CCC4(CC3)C(=O)Nc3ccc(Cl)cc34)ccc2N1CC(F)F` [Compound 106, 5-chloro-1′-(2-{[1-(2,2-difluoroethyl)-2-oxo-1,2,3,4-tetrahydroquinolin-6-yl]oxy}ethyl)-1,2-dihydrospiro[indole-3,4′-piperidin]-2-one], the half-maximal activity concentration (AC50) is 756 nM.

Take `CS(=O)(=O)c1ccc(OCCN2CCC3(CC2)C(=O)Nc2ccc(C#N)cc23)cc1C(F)(F)F` [Compound 107, 1′-{2-[4-methanesulfonyl-3-(trifluoromethyl)phenoxy]ethyl}-2-oxo-1,2-dihydrospiro[indole-3,4′-piperidine]-5-carbonitrile]: the AC50 came to 712 nM.

In the case of `CS(=O)(=O)c1ccc(OCCN2CCC3(CC2)C(=O)Nc2ccc(Cl)cc23)cc1C(F)(F)F` [Compound 108, 5-chloro-1′-{2-[4-methanesulfonyl-3-(trifluoromethyl)phenoxy]ethyl}-1,2-dihydrospiro[indole-3,4′-piperidin]-2-one], the AC50 is 860 nM.

Consider `CS(=O)(=O)C1(c2ccc(OCCN3CCC4(CC3)C(=O)Nc3ccc(C#N)cc34)cc2)COC1` [Compound 109, 1′-{2-[4-(3-methanesulfonyloxetan-3-yl)phenoxy]ethyl}-2-oxo-1,2-dihydrospiro[indole-3,4′-piperidine]-5-carbonitrile], for which the AC50 was determined as 1190 nM.

Consider `Cc1cc(OCCN2CCC3(CC2)C(=O)Nc2ccc(Cl)cc23)ccc1S(C)(=O)=O` [Compound 110, 5-chloro-1′-[2-(4-methanesulfonyl-3-methylphenoxy)ethyl]-1,2-dihydrospiro[indole-3,4′-piperidin]-2-one], for which the AC50 amounted to 772 nM.

Consider `Cc1cc(OCCN2CCC3(CC2)C(=O)Nc2ccc(C#N)cc23)ccc1S(C)(=O)=O` [Compound 111, 1′-[2-(4-methanesulfonyl-3-methylphenoxy)ethyl]-2-oxo-1,2-dihydrospiro[indole-3,4′-piperidine]-5-carbonitrile], for which the AC50 turned out to be 919 nM.

As for `O=C1Nc2ccc(Cl)cc2C12CCN(CCOc1ccc(S(=O)(=O)C(F)F)cc1)CC2` [Compound 112, 5-chloro-1′-[2-(4-difluoromethanesulfonylphenoxy)ethyl]-1,2-dihydrospiro[indole-3,4′-piperidin]-2-one], the AC50 worked out at 746 nM.

For the compound `N#Cc1ccc2c(c1)C1(CCN(CCOc3ccc(S(=O)(=O)C(F)F)cc3)CC1)C(=O)N2` [Compound 113, 1′-[2-(4-difluoromethanesulfonylphenoxy)ethyl]-2-oxo-1,2-dihydrospiro[indole-3,4′-piperidine]-5-carbonitrile], the AC50 came out at 524 nM.

As for `O=C1CCc2cc(OCCN3CCC4(CC3)C(=O)Nc3ccc(Cl)cc34)ccc2N1[C@H]1C[C@@H](O)C1` [Compound 114, 5-chloro-1′-[2-({2-oxo-1-[(cis)-3-hydroxycyclobutyl]-1,2,3,4-tetrahydroquinolin-6-yl}oxy)ethyl]-1,2-dihydrospiro[indole-3,4′-piperidin]-2-one], the AC50 was found to be 529 nM.

Consider `CN(c1c(F)cc(OCCN2CCC3(CC2)C(=O)Nc2ccc(Cl)cc23)cc1F)S(C)(=O)=O` [Compound 127, N-[4-(2-{5-chloro-2-oxo-1,2-dihydrospiro[indole-3,4′-piperidin]-1′-yl}ethoxy)-2,6-difluorophenyl]-N-methylmethanesulfonamide], for which the AC50 was determined as 542 nM.

For `CN(c1c(F)cc(OCCN2CCC3(CC2)C(=O)Nc2ccc(C#N)cc23)cc1F)S(C)(=O)=O` [Compound 128, N-[4-(2-{5-cyano-2-oxo-1,2-dihydrospiro[indole-3,4′-piperidin]-1′-yl}ethoxy)-2,6-difluorophenyl]-N-methylmethanesulfonamide], the AC50 was 537 nM.

Consider `Cc1cc(OCCN2CCC3(CC2)C(=O)Nc2ccc(Cl)cc23)cc(C)c1S(C)(=O)=O` [Compound 129, 5-chloro-1′-[2-(4-methanesulfonyl-3,5-dimethylphenoxy)ethyl]-1,2-dihydrospiro[indole-3,4′-piperidin]-2-one], for which the AC50 came out at 352 nM.

For the compound `Cn1c(=O)oc2cc(OCCN3CCC4(CC3)C(=O)Nc3ccc(Cl)cc34)ccc21` [Compound 131, 5-chloro-1′-{2-[(3-methyl-2-oxo-2,3-dihydro-1,3-benzoxazol-6-yl)oxy]ethyl}-1,2-dihydrospiro[indole-3,4′-piperidin]-2-one], the AC50 is 464 nM.

For the compound `Cn1c(=O)oc2cc(OCCN3CCC4(CC3)C(=O)Nc3ccc(C#N)cc34)ccc21` [Compound 132, 1′-{2-[(3-methyl-2-oxo-2,3-dihydro-1,3-benzoxazol-6-yl)oxy]ethyl}-2-oxo-1,2-dihydrospiro[indole-3,4′-piperidine]-5-carbonitrile], the AC50 is 492 nM.

On to `CS(=O)(=O)C1(c2c(F)cc(OCCN3CCC4(CC3)C(=O)Nc3ccc(Cl)cc34)cc2F)COC1` [Compound 136, 5-chloro-1′-{2-[3,5-difluoro-4-(3-methanesulfonyloxetan-3-yl)phenoxy]ethyl}-1,2-dihydrospiro[indole-3,4′-piperidin]-2-one], for which the AC50 was found to be 800 nM.

Turning to `CC(c1c(F)cc(OCCN2CCC3(CC2)C(=O)Nc2ccc(C#N)cc23)cc1F)S(C)(=O)=O` (stereo not drawn) [Compound 137, 1′-{2-[3,5-difluoro-4-(1-methanesulfonylethyl)phenoxy]ethyl}-2-oxo-1,2-dihydrospiro[indole-3,4′-piperidine]-5-carbonitrile], the AC50 turned out to be 597 nM.

For `Cc1cc(OCCN2CCC3(CC2)C(=O)Nc2ccc(C#N)cc23)cnc1S(C)(=O)=O` [Compound 140, 1′-{2-[(6-methanesulfonyl-5-methylpyridin-3-yl)oxy]ethyl}-2-oxo-1,2-dihydrospiro[indole-3,4′-piperidine]-5-carbonitrile], the AC50 came out at 807 nM.

For `CC(C)N1C(=O)Cc2cc(OCCN3CCC4(CC3)C(=O)Nc3ccc(C#N)cc34)ccc21` [Compound 144, 2-oxo-1′-(2-{[2-oxo-1-(propan-2-yl)-2,3-dihydro-1H-indol-5-yl]oxy}ethyl)-1,2-dihydrospiro[indole-3,4′-piperidine]-5-carbonitrile], the AC50 is 708 nM.

With `CC(C)N1C(=O)Cc2cc(OCCN3CCC4(CC3)C(=O)Nc3ccc(Cl)cc34)ccc21` [Compound 145, 5-chloro-1′-(2-{[2-oxo-1-(propan-2-yl)-2,3-dihydro-1H-indol-5-yl]oxy}ethyl)-1,2-dihydrospiro[indole-3,4′-piperidin]-2-one], the AC50 is 465 nM.

Consider `CN1Cc2cc(OCCN3CCC4(CC3)C(=O)Nc3ccc(Cl)cc34)ccc2C1=O` [Compound 146, 5-chloro-1′-{2-[(2-methyl-1-oxo-2,3-dihydro-1H-isoindol-5-yl)oxy]ethyl}-1,2-dihydrospiro[indole-3,4′-piperidin]-2-one], for which the AC50 worked out at 279 nM.

On to `CN=S(C)(=O)c1ccc(OCCN2CCC3(CC2)C(=O)Nc2ccc(Cl)cc23)cc1` (stereo not drawn) [Compound 147, 5-chloro-1′-(2-{4-[methyl(methylimino)oxo-λ^6-sulfanyl]phenoxy}ethyl)-1,2-dihydrospiro[indole-3,4′-piperidin]-2-one], for which the AC50 was 492 nM.

For orientation: AC50 means the midpoint of the concentration-response curve, whichever way the signal moves.

These data come from US12344610B2, “APOL1 inhibitors and methods of use” (Maze Therapeutics, Inc., priority 2022, dated 2025).
